Test results as given in patent US6660752B2, “2,6-Substituted chroman derivatives useful as beta-3 adrenoreceptor agonists” (Bayer Pharmaceuticals Corporation, priority 2001, dated 2003).
Like-named read-outs stand apart in the source and are kept apart here.

Biological target: T1, human beta-3-adrenergic receptor (Homo sapiens, UniProt P13945)
T1 construct: stably express full-length human beta-3-adrenergic receptor; expressed in transfected cells; host or cells: Chinese hamster ovary (CHO) cells
Test: cAMP production (beta-3 agonist activity) in CHO cells stably expressing human beta-3-adrenergic receptor, cAMP SPA
Assay type: cell-based
Conditions: CHO cells expressing full-length human beta-3-adrenergic receptor, 30 min incubation, 10 μM to 3 nM
Protocol: Chinese hamster ovary (CHO) cells that stably express full-length human beta-3-adrenergic receptor (Granneman et al., Mol. Pharmacol. 44:264-270, 1993) can be used in the following procedure. The cell line is grown in 90% F12 nutrient mixture (HAM), 10% fetal bovine serum, 100 units/ml penicillin G sodium, […] streptomycin sulfate, and 2 mM L-glutamine at 37° C. in 95% air and 5% CO2. The transfected cell line is maintained with G-418 (800 μg/ml).
To test the agonist activity, cells are exposed to test compound and then assayed for cAMP production. CHO cells (100 μl) are plated at 5×10^4 cells/well of a 96-well plate (Costar, Cambridge, Mass.) to achieve 70% confluency the next day. After overnight incubation at 37° C., media is removed and the cells are treated for 30 minutes at 37° C. with KRP buffer (120 mM NaCl, 5.1 mM KCl, 0.6 mM MgSO4.7H2O, 0.8 mM CaCl2.H2O, […] phosphate buffer, […] Hepes pH 7.4)+[…] IBMX ([…]), +1% DMSO, +/− test compounds ([…]). Test compounds are assayed from 10 μM to 3 nM with 3-fold serial dilutions. The control agonist, isoproterenol (10 mM stock in 1.1 mM ascorbate), is assayed by 3-fold dilution beginning at 1 μM. After a 30-minute incubation with the test compounds, the buffer/compound mixture is removed. The cells are lysed and cAMP levels are measured using the cAMP SPA screening assay system (Amersham, Arlington Heights, Ill.). The cAMP values are then plotted to determine the EC50 of each compound tested.

[1] = read-out: Beta-3 Agonistic Activity: Compounds with EC50 values ≦1 μM
[2] = read-out: Beta-3 Agonistic Activity: Compounds with EC50 values >1 μM

T1 sequence (P13945 whole entry): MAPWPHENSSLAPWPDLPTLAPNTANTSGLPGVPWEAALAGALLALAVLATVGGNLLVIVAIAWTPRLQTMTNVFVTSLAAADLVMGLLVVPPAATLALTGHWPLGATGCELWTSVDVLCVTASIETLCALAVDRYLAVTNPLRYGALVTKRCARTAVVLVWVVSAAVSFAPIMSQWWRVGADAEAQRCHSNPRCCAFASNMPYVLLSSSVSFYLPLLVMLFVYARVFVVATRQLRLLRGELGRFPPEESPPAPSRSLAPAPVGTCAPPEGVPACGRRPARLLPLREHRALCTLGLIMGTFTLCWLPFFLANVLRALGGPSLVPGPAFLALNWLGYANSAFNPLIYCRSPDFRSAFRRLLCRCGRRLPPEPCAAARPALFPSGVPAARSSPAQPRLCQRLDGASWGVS

SMILES	EC50 [1]	EC50 [2]
COc1ccc(-c2ccc3c(c2)CC[C@H](CNC[C@H](O)c2cccnc2)O3)cc1S(=O)(=O)Nc1nccs1 [Example 266]	≤ 1 µM	
O=C(Nc1ccccc1F)NS(=O)(=O)c1cccc(-c2ccc3c(c2)CC[C@H](CNC[C@H](O)c2cccnc2)O3)c1 [Example 336]	≤ 1 µM	
Nc1ccc([C@@H](O)CNC[C@H]2CCc3cc(-c4cccc(C(=O)N5CCCC5)c4)ccc3O2)cn1 [Example 383]	≤ 1 µM	
Cc1ccc(S(=O)(=O)CC(=O)c2ccc(-c3ccc4c(c3)CC[C@H](CNC[C@H](O)c3cccnc3)O4)cc2)cc1 [Example 309]	≤ 1 µM	
Cc1cccc(C(=O)NS(=O)(=O)c2cccc(-c3ccc4c(c3)CC[C@H](CNC[C@H](O)c3cccnc3)O4)c2)c1 [Example 297]	≤ 1 µM	
Nc1ccc([C@@H](O)CNC[C@H]2CCc3cc(-c4ccc(C(=O)O)cc4)ccc3O2)cn1 [Example 385, 4-[(2R)-2-({[(2R)-2-(6-amino-3-pyridinyl)-2-hydroxyethyl]amino}methyl)-3,4-dihydro-2H-chromen-6-yl]benzoic Acid]	≤ 1 µM	
Nc1ccc([C@@H](O)CNC[C@H]2CCc3cc(-c4cccc(C(=O)O)c4)ccc3O2)cn1 [Example 386, 3-[(2R)-2-({[(2R)-2-(6-amino-3-pyridinyl)-2-hydroxyethyl]amino}methyl)-3,4-dihydro-2H-chromen-6-yl]benzoic Acid]	≤ 1 µM	
COc1ccc(-c2ccc3c(c2)CCC(CNC[C@H](O)c2cccnc2)O3)cc1S(=O)(=O)Nc1ccc(C#N)cc1 (stereo partly drawn) [Example 277]	≤ 1 µM	
O=C(O)c1cccc(CCc2ccc3c(c2)CCC(CNC[C@H](O)c2cccnc2)O3)c1 (stereo in doubt) [Example 216, 3-{2-[(2S)-2-({[(2R)-2-hydroxy-2-(3-pyridinyl)ethyl]amino}methyl)-3,4-dihydro-2H-chromen-6-yl]ethyl}benzoic Acid]	≤ 1 µM	
COc1ccc(C(=O)NS(=O)(=O)c2ccc(-c3ccc4c(c3)CC[C@H](CNC[C@H](O)c3cccnc3)O4)cc2)cc1 [Example 300, 4-[(2R)-2-({[(2R)-2-hydroxy-2-(3-pyridinyl)ethyl]amino}methyl)-3,4-dihydro-2H-chromen-6-yl]-N-(4-methoxybenzoyl)benzenesulfonamide]	≤ 1 µM	
CCCOc1cc(-c2ccc3c(c2)CC[C@H](CNC[C@H](O)c2cccnc2)O3)ccc1C(=O)O [Example 186, 4-[(2R)-2-({[(2R)-2-hydroxy-2-(3-pyridinyl)ethyl]amino}methyl)-3,4-dihydro-2H-chromen-6-yl]-2-propoxybenzoic acid]	≤ 1 µM	
O=C(Nc1ccc(Cl)cc1)NS(=O)(=O)c1cccc(-c2ccc3c(c2)CC[C@H](CNC[C@H](O)c2cccnc2)O3)c1 [Example 335]	≤ 1 µM	
N#Cc1cc([N+](=O)[O-])ccc1NS(=O)(=O)c1cccc(-c2ccc3c(c2)CC[C@H](CNC[C@H](O)c2cccnc2)O3)c1 [Example 259, N-(2-cyano-4-nitrophenyl)-3-[(2R)-2-({[(2R)-2-hydroxy-2-(3-pyridinyl)ethyl]amino}methyl)-3,4-dihydro-2H-chromen-6-yl]benzenesulfonamide]	≤ 1 µM	
COCC(=O)NS(=O)(=O)c1ccc(-c2ccc3c(c2)CC[C@H](CNC[C@H](O)c2cccnc2)O3)cc1 [Example 291]	≤ 1 µM	
O=C(NS(=O)(=O)c1ccc(-c2ccc3c(c2)CC[C@H](CNC[C@H](O)c2cccnc2)O3)cc1)c1ccccc1 [Example 294, N-benzoyl-4-[(2R)-2-({[(2R)-2-hydroxy-2-(3-pyridinyl)ethyl]amino}methyl)-3,4-dihydro-2H-chromen-6-yl]benzenesulfonamide]	≤ 1 µM	
O=C(NC1CCCCC1)NS(=O)(=O)c1ccc(-c2ccc3c(c2)CC[C@H](CNC[C@H](O)c2cccnc2)O3)cc1 [Example 329, 3-{(1R)-2-[({(2R)-6-[4-({[(cyclohexylamino)carbonyl]amino}sulfonyl)phenyl]-3,4-dihydro-2H-chromen-2-yl}methyl)amino]-1-hydroxyethyl}pyridine]	≤ 1 µM	
Nc1ccc([C@@H](O)CNC[C@H]2CCc3cc(C(=O)N4CCCC[C@H]4C(=O)O)ccc3O2)cn1 [Example 364]		> 1 µM
Nc1ccc([C@@H](O)CNC[C@H]2CCc3cc(C(=O)N4CCC[C@H]4C(=O)O)ccc3O2)cn1 [Example 363]		> 1 µM
COc1cccc(-c2ccc3c(c2)CC[C@H](CNC[C@H](O)c2cccnc2)O3)c1 [Example 43]		> 1 µM
COCC(=O)NS(=O)(=O)c1cccc(-c2ccc3c(c2)CCC(CNC[C@H](O)c2cccnc2)O3)c1 (stereo in doubt) [Example 283, 3-[(2S)-2-({[(2R)-2-hydroxy-2-(3-pyridinyl)ethyl]amino}methyl)-3,4-dihydro-2H-chromen-6-yl]-N-(methoxyacetyl)benzenesulfonamide]	≤ 1 µM	

The next lines start with the values.

EC50 [1]	EC50 [2]	SMILES
≤ 1 µM		O=S(=O)(Nc1ccccn1)c1cccc(-c2ccc3c(c2)CC[C@H](CNC[C@H](O)c2cccnc2)O3)c1 [Example 254]
≤ 1 µM		CCOCC(=O)NS(=O)(=O)c1ccc(-c2ccc3c(c2)CC[C@H](CNC[C@H](O)c2cccnc2)O3)cc1 [Example 286, N-(ethoxyacetyl)-4-[(2R)-2-({[(2R)-2-hydroxy-2-(3-pyridinyl)ethyl]amino}methyl)-3,4-dihydro-2H-chromen-6-yl]benzenesulfonamide]
≤ 1 µM		Nc1ccc([C@@H](O)CNC[C@H]2CCc3cc(C(=O)NC4(C(=O)O)CC4)ccc3O2)cn1 [Example 366, 1-({[(2R)-2-({[(2R)-2-(6-amino-3-pyridinyl)-2-hydroxyethyl]amino}methyl)-3,4-dihydro-2H-chromen-6-yl]carbonyl}amino)cyclopropanecarboxylic acid]
≤ 1 µM		Nc1ccc([C@@H](O)CNC[C@H]2CCc3cc(-c4ccc(-c5nnn[nH]5)cc4)ccc3O2)cn1 [Example 384, (1R)-1-(6-amino-3-pyridinyl)-2-[({(2R)-6-[4-(1H-tetraazol-5-yl)phenyl]-3,4-dihydro-2H-chromen-2-yl}methyl)amino]ethanol]
≤ 1 µM		COc1ccc(C(=O)NS(=O)(=O)c2cccc(-c3ccc4c(c3)CCC(CNC[C@H](O)c3cccnc3)O4)c2)cc1 (stereo partly drawn) [Example 303]
≤ 1 µM		O=C(NS(=O)(=O)c1cccc(-c2ccc3c(c2)CC[C@H](CNC[C@H](O)c2cccnc2)O3)c1)c1cccc(Cl)c1 [Example 302]
≤ 1 µM		N#Cc1ccc(NS(=O)(=O)c2ccc(-c3ccc4c(c3)CC[C@H](CNC[C@H](O)c3cccnc3)O4)cc2)cc1 [Example 256]
≤ 1 µM		CC(C)C(=O)NS(=O)(=O)c1ccc(-c2ccc3c(c2)CC[C@H](CNC[C@H](O)c2cccnc2)O3)cc1 [Example 290]
≤ 1 µM		Cc1ccc(-c2cc(-c3ccc4c(c3)CC[C@H](CNC[C@H](O)c3cccnc3)O4)ccc2C(=O)O)cc1 [Example 205, 5-[(2R)-2-({[(2R)-2-hydroxy-2-(3-pyridinyl)ethyl]amino}methyl)-3,4-dihydro-2H-chromen-6-yl]-4′-methyl-1,1′-biphenyl-2-carboxylic Acid]
≤ 1 µM		O[C@@H](CNC[C@H]1CCc2cc(-c3cccc4ccccc34)ccc2O1)c1cccnc1 [Example 54]
≤ 1 µM		O=S(=O)(Nc1ccc(-c2ccc3c(c2)CC[C@H](CNC[C@H](O)c2cccnc2)O3)nc1)c1ccc(Cl)cc1 [Example 320, 4-chloro-N-{6-[(2R)-2-({[(2R)-2-hydroxy-2-(3-pyridinyl)ethyl]amino}methyl)-3,4-dihydro-2H-chromen-6-yl]-3-pyridinyl}benzenesulfonamide]
≤ 1 µM		CC(=O)Nc1ccc(-c2ccc3c(c2)CC[C@H](CNC[C@H](O)c2cccnc2)O3)nc1 [Example 323]
≤ 1 µM		O=C(NS(=O)(=O)c1ccc(-c2ccc3c(c2)CC[C@H](CNC[C@H](O)c2cccnc2)O3)cc1)c1ccc(F)cc1 [Example 295, N-(4-fluorobenzoyl)-4-[(2R)-2-({[(2R)-2-hydroxy-2-(3-pyridinyl)ethyl]amino}methyl)-3,4-dihydro-2H-chromen-6-yl]benzenesulfonamide]
≤ 1 µM		COc1ccc(NC(=O)NS(=O)(=O)c2cccc(-c3ccc4c(c3)CC[C@H](CNC[C@H](O)c3cccnc3)O4)c2)cc1 [Example 334]
≤ 1 µM		Cc1cc(Cl)ccc1NC(=O)NS(=O)(=O)c1ccc(-c2ccc3c(c2)CC[C@H](CNC[C@H](O)c2cccnc2)O3)cc1 [Example 330, 3-((1R)-2-{[((2R)-6-{4-[({[(4-chloro-2-methylphenyl)amino]carbonyl}amino)sulfonyl]phenyl}-3,4-dihydro-2H-chromen-2-yl)methyl]amino}-1-hydroxyethyl)pyridine]
≤ 1 µM		O=S(=O)(Nc1cccnc1)c1ccc(-c2ccc3c(c2)CC[C@H](CNC[C@H](O)c2cccnc2)O3)cc1 [Example 253, 4-[(2R)-2-({[(2R)-2-hydroxy-2-(3-pyridinyl)ethyl]amino}methyl)-3,4-dihydro-2H-chromen-6-yl]-N-(3-pyridinyl)benzenesulfonamide]
